In publication PMC10343299, “S-Ethyl-Isothiocitrullin-Based Dipeptides and 1,2,4-Oxadiazole Pseudo-Dipeptides: Solid Phase Synthesis and Evaluation as NO Synthase Inhibitors” (Molecules, 2023):

Assays:
[1] = target: T1, oxygenase domain of iNOS (iNOSoxy) (Mus musculus, UniProt P29477); assay: UV-visible difference spectroscopy titration of iNOSoxy; format: binding; conditions: UV/Vis difference spectroscopy, ± SD, three experiments; read-out: Apparent equilibrium constant Ks iNOSoxy
T1 construct: the oxygenase domain of nNOS (nNOSoxy) and iNOS (iNOSoxy); made in house; host or cells: Escherichia coli
T1 sequence (P29477 1-498 limits assumed): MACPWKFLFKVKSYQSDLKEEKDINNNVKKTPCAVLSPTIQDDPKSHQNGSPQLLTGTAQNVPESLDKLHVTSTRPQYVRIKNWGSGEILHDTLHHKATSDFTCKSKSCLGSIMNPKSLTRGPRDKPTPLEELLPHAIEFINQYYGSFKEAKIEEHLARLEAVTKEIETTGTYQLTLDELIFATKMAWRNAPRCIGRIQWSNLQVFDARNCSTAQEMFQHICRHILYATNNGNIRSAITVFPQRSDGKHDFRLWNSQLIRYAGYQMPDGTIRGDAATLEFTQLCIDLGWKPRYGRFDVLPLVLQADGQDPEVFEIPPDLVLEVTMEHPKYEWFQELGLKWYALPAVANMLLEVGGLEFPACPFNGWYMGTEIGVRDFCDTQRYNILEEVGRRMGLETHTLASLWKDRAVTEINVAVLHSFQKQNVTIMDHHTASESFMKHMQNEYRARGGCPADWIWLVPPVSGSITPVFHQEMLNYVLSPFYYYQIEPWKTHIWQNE
Excerpt: We performed UV–visible difference spectroscopy to analyze the interaction mode of some inhibitors with the heme-active site of NOS [54]. We have studied the effects of dipeptide-like compounds 7, 17, 19, 23, and 27 and 1,2,4-oxadiazole 35 on the UV–visible spectra of the oxygenase domain of nNOS (nNOSoxy) and iNOS (iNOSoxy). As expected, when added stepwise to n- and iNOSoxy, all selected compounds elicited different spectra with a trough at ~425 nm and a peak at ~395 nm, similar to the substrate L-arginine. This profile is characteristic of type I interactions, meaning that they are bound in close proximity to the heme prosthetic group and shifted the spin state equilibrium to the pentacoordinated heme–Fe^III state. Double reverse plotting of the differences in absorbance between the peak at ~395 nm and valley at ~425 nm (ΔA395–425 nm) as a function of the concentration of the added compounds allowed calculating apparent binding constants (Ks) (Table 3). The reference inhibitor SEITU [55] tightly bound both NOS isoforms with high affinity but no selectivity. With the exception of the dipeptide-like 27 and the heterocyclic analog 35, which similarly interacted with both proteins, other compounds preferentially bound nNOSoxy over iNOSoxy with apparent affinities close to SEITU for this isoform.
Full-length recombinant rat nNOS, mouse iNOS, bovine eNOS, and the heme domains of rat brain nNOS and mouse iNOS were expressed in Escherichia coli and purified as described previously.
This study was performed as previously described.

INS-1 cells (nNOS) = assay: Glucose-induced insulin secretion; format: cell-based; conditions: 5.6 mM glucose, no IL-1β, 1 h, compounds 500 µM to 5 mM, L-NAME 5 mM
Procedure: Indeed, pancreatic β-cells are known to constitutively express the nNOS isoform, which negatively modulates glucose-induced insulin secretion.
The insulin-secreting cell line INS-1 (a gift from Prof. C. Wolheim, Geneva, Switzerland) was cultured in RPMI-1640 supplemented with 10% FCS, 100 units/mL penicillin, 100 µg/mL streptomycin, 2 mM L-glutamine, 10 mM HEPES, 1 mM sodium pyruvate, and […] 2-mercaptoethanol, according to M. Asfari et al.’s method.
The functional effects of compounds were evaluated on INS-1 cells. Cells were preincubated for 1 h at 37 °C in a Krebs–Ringer bicarbonate buffer (108 mM NaCl, 1.19 mM KH2PO4, 4.74 mM KCl, 2.54 mM CaCl2, 1.19 mM MgSO4·7H2O, and 18 mM NaHCO3) containing 2 g/L BSA in the absence of glucose. After removal of the medium, the cells were stimulated for another hour at 37°C in the same buffer in the presence of 5.6 mM glucose and the presence of increasing concentrations of L-NAME or compounds (from 500 µM to 5 mM). At the end of the incubation period, the medium was collected, and the insulin was measured using an insulin high-range assay kit (CisBio, Codolet, France). Data are expressed as means ± SEM of the experiments (indicated in the result part).

bovine eNOS = target: T2, bovine eNOS (Bos taurus, UniProt P29473); assay: NOS inhibition, oxyhemoglobin (hemoglobin capture) test, recombinant eNOS; format: biochemical; conditions: dipeptide-like series; recombinant enzyme, 10 µM arginine, triplicate; NI = <50% inhibition at 100 μM; read-out: IC50 (μM) eNOS (Bovine)
T2 construct: Full-length recombinant rat nNOS, mouse iNOS, bovine eNOS; made in house; host or cells: Escherichia coli
T2 sequence (P29473 whole entry): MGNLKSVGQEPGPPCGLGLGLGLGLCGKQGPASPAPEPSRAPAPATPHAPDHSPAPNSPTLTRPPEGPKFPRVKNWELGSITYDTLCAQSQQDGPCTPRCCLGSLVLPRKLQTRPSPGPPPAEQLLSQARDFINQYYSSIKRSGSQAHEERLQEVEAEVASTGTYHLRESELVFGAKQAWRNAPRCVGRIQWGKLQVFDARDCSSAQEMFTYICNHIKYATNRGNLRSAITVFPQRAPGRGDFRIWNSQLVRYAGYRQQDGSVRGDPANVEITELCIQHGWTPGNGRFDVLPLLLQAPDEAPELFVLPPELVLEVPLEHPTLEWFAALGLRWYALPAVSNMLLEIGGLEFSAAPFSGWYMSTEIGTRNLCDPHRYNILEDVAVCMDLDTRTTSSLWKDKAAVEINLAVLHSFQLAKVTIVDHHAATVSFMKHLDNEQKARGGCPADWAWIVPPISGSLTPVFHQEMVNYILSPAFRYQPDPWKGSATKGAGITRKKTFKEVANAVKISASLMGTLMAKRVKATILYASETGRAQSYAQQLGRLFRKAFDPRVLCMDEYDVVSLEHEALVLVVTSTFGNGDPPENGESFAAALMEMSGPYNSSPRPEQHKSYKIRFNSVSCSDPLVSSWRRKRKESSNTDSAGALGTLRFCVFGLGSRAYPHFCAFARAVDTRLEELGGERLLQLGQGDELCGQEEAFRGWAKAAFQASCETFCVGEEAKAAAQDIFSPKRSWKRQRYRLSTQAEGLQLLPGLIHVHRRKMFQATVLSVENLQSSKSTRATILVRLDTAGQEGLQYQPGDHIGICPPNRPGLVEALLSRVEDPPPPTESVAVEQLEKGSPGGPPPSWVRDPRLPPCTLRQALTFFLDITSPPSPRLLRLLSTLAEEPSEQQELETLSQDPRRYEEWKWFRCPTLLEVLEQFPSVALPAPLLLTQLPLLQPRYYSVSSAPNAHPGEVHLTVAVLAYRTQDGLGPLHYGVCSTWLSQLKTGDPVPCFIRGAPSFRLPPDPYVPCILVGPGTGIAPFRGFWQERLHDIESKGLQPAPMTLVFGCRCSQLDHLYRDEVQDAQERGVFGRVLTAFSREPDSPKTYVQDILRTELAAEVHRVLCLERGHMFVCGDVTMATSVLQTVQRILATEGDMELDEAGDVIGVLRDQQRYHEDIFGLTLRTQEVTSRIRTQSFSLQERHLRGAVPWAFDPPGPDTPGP
Procedure: The inhibitory effects of all compounds against the three recombinant NOSs (rat nNOS, mouse iNOS, and bovine eNOS) were evaluated in 96-well plates using the oxyhemoglobin test [53].
NOS catalytic activity was measured using the hemoglobin capture assay [53]. The test was performed at 30 °C in 96-well microplates using a final volume of 200 µL. The assay mixture contained 100 µM NADPH, 10 µM BH4, 6 µM HbO2, 100 µM DTT, 5 µM FAD, 5 µM FMN, 10 µM (nNOS and eNOS), or 20 µM (iNOS) arginine, all in a 100 mM Hepes buffer, pH 7.5, and, for constitutive n- and e-NOS, 10 µg/mL calmodulin, and 1 mM CaCl2. The studied compounds were introduced as 2 μL of ×100 concentrated solutions in DMSO, and the control experiments were performed with DMSO or the buffer only. The kinetics of NO production were measured at 401 nm using an Infinite F500 microplate reader (Tecan, Singapore).

Structure (SMILES) | Kd [1] [µM] | Effect on insulin secretion (INS-1 cells (nNOS)) | inhibition at 100 µM (bovine eNOS) [%]
CCSC(=N)NCCC[C@H](N)C(=O)N[C@H]1CCCN(Cc2ccccc2)C1 [Compound 7] | 406 ± 97 | dose-dependently stimulate glucose insulin secretion with better efficiency than L-NAME | < 50
CCSC(=N)NCCC[C@H](N)C(=O)N[C@H]1CCCN(Cc2ccc(Cl)c(C(F)(F)F)c2)C1 [Compound 17] | 36.4 ± 4.6 | dose-dependently stimulate glucose insulin secretion with better efficiency than L-NAME | < 50
CCSC(=N)NCCC[C@H](N)C(=O)N[C@H]1CCCN(Cc2cccc(-c3cccc(C(=O)O)c3)c2)C1 [Compound 27] | 57.9 ± 8 | dose-dependently stimulate glucose insulin secretion with better efficiency than L-NAME | < 50
